Measured values as given in US20260364089A1, “PYRIDOPYRIMIDINE KRAS INHIBITORS” (Treeline Biosciences, Inc., priority 2022, published 2026).
pIC50: −log10 of the molar value.

Tests used:
Type in all cases: biochemical
[1] = biological target: T1, KRas WT (Homo sapiens, UniProt P01116); experiment: SOS1-Catalyzed Nucleotide Exchange Assay, KRas WT; conditions: 20 nM KRas WT (1-169, GDP-loaded), 10 nM SOS1
T1 construct: Biotinylated KRas WT(1-169); biotin (biotinylated)
Experimental: (§1) KRas G12R and WT: Compounds were pre-dispensed using acoustic transfer technology into a black, low volume 384-well assay plate. A 10-point dose response of each compound was performed with a 30 μM top dose. Biotinylated KRas WT(1-169) or KRas G12R (1-169) loaded with GDP nucleotide was mixed with Streptavidin-Tb cryptate (Cisbio) in assay buffer (20 mM HEPES pH 7.4, 150 mM NaCl, 2 mM MgCl2, and 0.005% CA680) to produce a 1.5× solution. 10 μL of the 1.5× KRas-cryptate solution was added to wells of a black, low-volume 384-well assay plate. The KRas/cryptate-compound mixture was incubated for 1 hour at room temperature. A 3× solution of SOS1 (564-1049) and EDA-GTP-DY-647P1 (Jena Bioscience) was prepared in assay buffer. 5 μL of the SOS1-labeled GTP solution was added to the wells to initiate the nucleotide exchange reaction. The final concentration of KRas G12R and SOS1 were 10 nM and 200 nM, respectively. The final concentration of KRas WT and SOS1 were 20 nM and 10 nM, respectively. The plate was allowed to incubate for 1 hr, then time resolved fluorescence was read on a PHERAstar plate reader equipped with a filter module with excitation=337 nm and emission 1=620 nm, emission 2=665 nm. The TR-FRET signal was calculated as the ratio of fluorescence intensity [emission 665 nm]/[emission 620 nm]. IC50 values were calculated using a four-parameter, variable response sigmoidal dose response curve fit in PerkinElmer Signals VitroVivo.

[2] = biological target: T2, KRas G12R (Homo sapiens, UniProt P01116, G12R); experiment: SOS1-Catalyzed Nucleotide Exchange Assay, KRas G12R; conditions: 10 nM KRas G12R (1-169, GDP-loaded), 200 nM SOS1
T2 construct: KRas G12R (1-169) loaded with GDP nucleotide; biotin (biotinylated)
Experimental: as §1

[3] = biological target: T3, KRas G12V (Homo sapiens, UniProt P01116, G12V); experiment: SOS1-Catalyzed Nucleotide Exchange Assay, KRas G12V (Method 1); conditions: 5 nM KRas G12V (aa 1-169, GDP-loaded), 50 nM SOS1
T3 construct: Biotinylated KRas G12V (aa 1-169) loaded with GDP nucleotide; biotin (biotinylated)
Experimental: KRas G12V [Method 1]: Biotinylated KRas G12V (aa 1-169) loaded with GDP nucleotide and Streptavidin-Europium (SA-EU, Columbia Biosciences) were preincubated in assay buffer (20 mM HEPES pH 7.4, 150 mM NaCl, 5 mM MgCl2, 1 mM DTT, 0.01% Brij-35, 0.3 mg/mL BSA) on ice for 30 min. Separately SOS1 (aa 546-1049) and EDA-GTP-DY647P1 (Jena Bioscience) were preincubated in assay buffer on ice for 30 min. After pre-incubation, 5 μL buffer and 5 μL of KRas G12V-SA-Eu were added to each well of a white, low-volume, non-binding 384-well plate. Compounds were then added to respective wells with a Tecan D300e liquid dispenser. A 10-point concentration response curve for each compound was prepared with appropriate top concentration (1 μM, 10 μM, or 300 μM) and incubated for 30 min. 5 μL of SOS1-EDA-GTP-D467P1 was added to start the nucleotide exchange reaction. Final concentration in the assay were 5 nM KRas G12V, 50 nM SOS1 (aa 564-1049). The reaction was allowed to proceed for 60-90 minutes after which the plate was read on a PHERAstar FSX plate reader (exc: 337 nm, em 1: 665 nm, em 2: 620 nm). After normalization of the raw data (ratio of Signal665nm/Signal620nm) the data was fit to a four-parameter logistic curve in GraphPad Prism (v9.4.1).

T1 sequence (P01116 1-169): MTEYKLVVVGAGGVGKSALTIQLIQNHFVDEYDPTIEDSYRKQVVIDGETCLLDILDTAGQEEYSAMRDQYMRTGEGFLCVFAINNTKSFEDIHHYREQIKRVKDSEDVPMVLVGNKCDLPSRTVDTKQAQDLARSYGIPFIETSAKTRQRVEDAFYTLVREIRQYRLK
T3 sequence (P01116 1-169 G12V): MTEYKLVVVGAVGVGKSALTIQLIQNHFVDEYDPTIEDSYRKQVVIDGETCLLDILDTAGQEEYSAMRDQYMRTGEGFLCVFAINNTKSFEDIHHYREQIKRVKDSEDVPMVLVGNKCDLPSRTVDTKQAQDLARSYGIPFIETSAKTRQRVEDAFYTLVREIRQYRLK
T2 sequence (P01116 1-169 G12R): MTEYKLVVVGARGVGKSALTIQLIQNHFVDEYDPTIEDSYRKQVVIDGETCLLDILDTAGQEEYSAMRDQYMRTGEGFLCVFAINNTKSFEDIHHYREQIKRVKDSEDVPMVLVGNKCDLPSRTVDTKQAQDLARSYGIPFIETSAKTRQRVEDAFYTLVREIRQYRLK

SMILES | pIC50 [1] | pIC50 [2] | IC50 [3] | KRas WT IC50 (nM) [1]
Oc1ccc2c(c1)-c1ncc3c(nc(OC[C@@]45CCCN4C[C@H](F)C5)nc3c1F)N1CCCC(CCCCCCC2)C1 (stereo partly drawn) [Compound 143a, 2^8-fluoro-2^2-(((2R,7aS)-2-fluorotetrahydro-1H-pyrrolizin-7a(5H)-yl)methoxy)-2(4,7)-pyrido[4,3-d]pyrimidina-1(1,3)-piperidina-3(1,2)-benzenacyclodecaphan-3^5-ol] | ≥ 7.00 | 6.00 to 7.00 | 100 to 1000 nM | –
O=C1CCCCc2c(Cl)cc(O)cc2-c2ncc3c(nc(OC[C@@]45CCCN4C[C@H](F)C5)nc3c2F)N2CCC[C@H](CCN1)C2 (single isomer, unassigned) [Compound 115b] | – | ≥ 7.00 | ≤ 100 nM | ++ ++
Oc1cc(Cl)c2c(c1)-c1ncc3c(nc(OC[C@@]45CCCN4C[C@H](F)C5)nc3c1F)N1CCCC(O)(CCCCCCC2)C1 (stereo partly drawn) [Compound 152a, 3^3-chloro-2^8-fluoro-2^2-(((2R,7aS)-2-fluorotetrahydro-1H-pyrrolizin-7a(5H)-yl)methoxy)-2(4,7)-pyrido[4,3-d]pyrimidina-1(1,3)-piperidina-3(1,2)-benzenacyclodecaphane-1^3,3^5-diol] | ≥ 7.00 | ≥ 7.00 | ≤ 100 nM | –
Oc1cc(Cl)c2c(c1)-c1ncc3c(nc(OC[C@@]45CCCN4C[C@H](F)C5)nc3c1F)N1CCCC(O)(CCCCCC2)C1 (stereo partly drawn) [Compound 151a, 3^3-chloro-2^8-fluoro-2^2-(((2R,7aS)-2-fluorotetrahydro-1H-pyrrolizin-7a(5H)-yl)methoxy)-2(4,7)-pyrido[4,3-d]pyrimidina-1(1,3)-piperidina-3(1,2)-benzenacyclononaphane-1^3,3^5-diol] | ≥ 7.00 | ≥ 7.00 | ≤ 100 nM | –
Oc1cc2c3c(c(F)ccc3c1)-c1cn(nn1)CCCCC1CCCN(C1)c1nc(OC[C@@]34CCCN3C[C@H](F)C4)nc3c(F)c-2ncc13 (stereo partly drawn) [Compound 125a, (Z)-2^8,3^7-difluoro-2^2-(((2R,7aS)-2-fluorotetrahydro-1H-pyrrolizin-7a(5H)-yl)methoxy)-4^1H-2(4,7)-pyrido[4,3-d]pyrimidina-1(1,3)-piperidina-4(4,1)-triazola-3(1,8)-naphthalenacyclooctaphan-3^3-ol] | 5.00 to 6.00 | 4.52 to 5.00 | 10000 to 30000 nM | –
O=C1CCCCc2c(Cl)cc(O)cc2-c2ncc3c(nc(OC[C@@]45CCCN4C[C@H](F)C5)nc3c2F)N2CCC[C@@H](CCN1)C2 (single isomer, unassigned) [Compound 115c] | ≥ 7.00 | ≥ 7.00 | ≤ 100 nM | –
O=C1CCc2c(Cl)cc(O)cc2-c2ncc3c(nc(OC[C@@]45CCCN4C[C@H](F)C5)nc3c2F)N2CCCC(CCN1)C2 (stereo partly drawn) [Compound 113a, 3^3-chloro-2^8-fluoro-2^2-(((2R,7aS)-2-fluorotetrahydro-1H-pyrrolizin-7a(5H)-yl)methoxy)-3^5-hydroxy-7-aza-2(4,7)-pyrido[4,3-d]pyrimidina-1(1,3)-piperidina-3(1,2)-benzenacyclononaphan-6-one] | 5.00 to 6.00 | 4.52 to 5.00 | 1000 to 10000 nM | –
Oc1cc(Cl)c2c(c1)-c1ncc3c(nc(OC[C@@]45CCCN4C[C@H](F)C5)nc3c1F)N1CCCC(Cc3noc(n3)CCCCCC2)C1 (stereo partly drawn) [Compound 153a, (Z)-1^3-chloro-2^8-fluoro-2^2-(((2R,7aS)-2-fluorotetrahydro-1H-pyrrolizin-7a(5H)-yl)methoxy)-5(3,5)-oxadiazola-2(7,4)-pyrido[4,3-d]pyrimidina-3(1,3)-piperidina-1(1,2)-benzenacycloundecaphan-1^5-ol] | 6.00 to 7.00 | 6.00 to 7.00 | 100 to 1000 nM | –
O=C1CCCCc2c(Cl)cc(O)cc2-c2ncc3c(nc(OC[C@@]45CCCN4C[C@H](F)C5)nc3c2F)N2CCCC(CCN1)C2 (stereo partly drawn) [Compound 115a, 3^3-chloro-2^8-fluoro-2^2-(((2R,7aS)-2-fluorotetrahydro-1H-pyrrolizin-7a(5H)-yl)methoxy)-3^5-hydroxy-9-aza-2(4,7)-pyrido[4,3-d]pyrimidina-1(1,3)-piperidina-3(1,2)-benzenacycloundecaphan-8-one] | ≥ 7.00 | ≥ 7.00 | ≤ 100 nM | –
O=C1CCCCc2c(Cl)cc(O)cc2-c2ncc3c(nc(OC[C@@]45CCCN4C[C@H](F)C5)nc3c2F)N2CCCC(O)(CCN1)C2 (stereo partly drawn) [Compound 140a, 3^3-chloro-2^8-fluoro-2^2-(((2R,7aS)-2-fluorotetrahydro-1H-pyrrolizin-7a(5H)-yl)methoxy)-1^3,3^5-dihydroxy-9-aza-2(4,7)-pyrido[4,3-d]pyrimidina-1(1,3)-piperidina-3(1,2)-benzenacycloundecaphan-8-one] | – | – | ≤ 100 nM | –
